Laboratory results: patent publication USRE43802E1, “α- and β-amino acid hydroxyethylamino sulfonamides useful as retroviral protease inhibitors” (G.D. Searle LLC, priority 1992, dated 2012)

biological target: T1, HIV protease (Human immunodeficiency virus type 1 group M subtype B, UniProt P04585); experiment: HIV protease enzyme assay (fluorescence, substrate 2-Ile-Nle-Phe(p-NO2)-Gln-ArgNH2); format: biochemical; conditions: IC50 (nM), Table 21; HIV protease enzyme assay
T1 construct: HIV protease is diluted in the assay buffer to a final enzyme concentration of 12.3 nanomolar, based on a molecular weight of 10,780
Experimental: The enzyme method is described below. […] The positive control is MVT-101 (Miller, M. et al, Science, 246, 1149 (1989)] The assay conditions are as follows:
Assay buffer: 20 mM sodium phosphate, pH 6.4 20% glycerol 1 mM EDTA 1 mM DTT 0.1% CHAPS
The above described substrate is dissolved in DMSO, then diluted 10 fold in assay buffer. Final substrate concentration in the assay is 80 μM.
The final concentration of DMSO is 14% and the final concentration of glycerol is 18%. The test compound is dissolved in DMSO and diluted in DMSO to 10× the test concentration; 10 μl of the enzyme preparation is added, the materials mixed and then the mixture is incubated at ambient temperature for 15 minutes. The enzyme reaction is initiated by the addition of 40 μl of substrate. The increase in fluorescence is monitored at 4 time points (0, 8, 16 and 24 minutes) at ambient temperature. Each assay is carried out in duplicate wells.

| SMILES | IC50 [nM] |
| --- | --- |
| CC(C)CCN(C[C@@H](O)[C@H](Cc1ccccc1)NC(=O)[C@H](Cc1cnc[nH]1)NC(=O)c1ccc2ccccc2n1)S(=O)(=O)c1ccccc1 [Entry 12] | 2 |
| CC(C)CCN(C[C@@H](O)[C@H](Cc1ccccc1)NC(=O)[C@@H](NC(=O)CN(C)C)C(C)(C)C)S(C)(=O)=O [Entry 6] | > 100 |
| CC(C)CCN(C[C@@H](O)[C@H](Cc1ccccc1)NC(=O)c1ccccc1)S(=O)(=O)c1ccccc1 [Entry 8] | 85 |

same assay, conditions: Table 18A; HIV protease enzyme assay; read-out: IC50

| SMILES | IC50 [nM] |
| --- | --- |
| CC(C)CCN(C[C@@H](O)[C@H](Cc1ccccc1)NC(=O)[C@H](Cc1c[nH]cn1)NC(=O)OCc1ccccc1)S(=O)(=O)c1ccccc1 [Entry 8] | 4.2 |
| CCOc1ccc(S(=O)(=O)N(CC(C)C)C[C@@H](O)[C@H](Cc2ccccc2)NC(=O)OCc2ccccc2)cc1 [Entry 12] | 20 |
| CCCN(C[C@@H](O)[C@H](Cc1ccccc1)NC(=O)[C@H](CC(N)=O)NC(=O)OCc1ccccc1)S(=O)(=O)c1ccccc1 [Entry 7] | 3.6 |
| CC(C)CCN(C[C@@H](O)[C@H](Cc1ccccc1)NC(=O)OCc1ccccc1)S(=O)(=O)c1ccc([N+](=O)[O-])cc1 [Entry 6] | 10 |
| CC(C)CCN(C[C@@H](O)[C@H](Cc1ccccc1)NC(=O)OCc1ccccc1)S(=O)(=O)c1cccs1 [Entry 10] | 100 |

same assay, conditions: Table 19B; @ 1 uM

| SMILES | IC50 (uM) or % inhib: % inhib @ 1 uM [%] |
| --- | --- |
| CC(C)CCN(C[C@@H](O)[C@H](Cc1ccccc1)NC(=O)OCc1ccccc1)S(=O)(=O)C(F)(F)F [Table 1a Entry 50] | 42 |
| CC(C)CCN(C[C@@H](O)[C@H](Cc1ccccc1)NC(=O)C(NC(=O)CN(C)C)C(C)(C)C)S(C)(=O)=O (some centres unmarked) [Table 3 Entry 2] | 38 |
| CC(C)CCN(C[C@@H](O)[C@H](Cc1ccccc1)NC(=O)OCc1ccccc1)S(=O)(=O)CCl [Table 1a Entry 52] | 39 |

same assay, conditions: Table 19B; @ 1.0 uM (second value of the cell)

| SMILES | IC50 (uM) or % inhib: % inhib @ 1.0 uM [%] |
| --- | --- |
| CC(C)CCN(C[C@@H](O)[C@H](Cc1ccccc1)NC(=O)C(NC(=O)CN(C)C)C(C)(C)C)S(C)(=O)=O (some centres unmarked) [Table 3 Entry 2] | 90 |

same assay, conditions: Table 19B; @ 10 uM

| SMILES | IC50 (uM) or % inhib: % inhib @ 10 uM [%] |
| --- | --- |
| CC(C)CCN(C[C@@H](O)[C@H](Cc1ccccc1)NC(=O)OCc1ccccc1)S(=O)(=O)C(F)(F)F [Table 1a Entry 50] | 89 |
| CC(C)CCN(C[C@@H](O)[C@H](Cc1ccccc1)NC(=O)OCc1ccccc1)S(=O)(=O)CCl [Table 1a Entry 52] | 81 |

same assay, conditions: Table 19B; HIV protease enzyme assay; read-out: IC50 (uM) or % inhib: IC50

| SMILES | IC50 [nM] |
| --- | --- |
| CSC(C)(C)[C@H](NC(=O)CN(C)C)C(=O)N[C@@H](Cc1ccccc1)[C@H](O)CN(CCC(C)C)S(=O)(=O)c1ccccc1 [Table 14 Entry 3] | 4.9 |
| CC(C)CCN(CC(O)C(Cc1ccccc1)NC(=O)C(N)C(C)(C)C)S(=O)(=O)c1ccccc1 (centres unmarked) [Table 11 Entry 1] | 130 |
| CCC(C)CN(C[C@@H](O)[C@H](Cc1ccccc1)NC(=O)OCc1ccccc1)S(=O)(=O)c1ccc(OC)cc1 (some centres unmarked) [Table 1a Entry 56] | 3.6 |
| CC(C)CN(C[C@@H](O)[C@H](Cc1ccccc1)NC(=O)OCc1ccccc1)S(=O)(=O)C=Cc1ccccc1 [Table 1a Entry 53] | 49 |
| CC(C)CCN(C[C@@H](O)[C@H](Cc1ccccc1)NC(=O)[C@@H](NC(=O)OCc1ccccc1)C(C)(C)C)S(=O)(=O)c1ccccc1 [Table 5 Entry 22] | 1.8 |
| CCCS(=O)(=O)N(CCC(C)C)C[C@@H](O)[C@H](Cc1ccccc1)NC(=O)OCc1ccccc1 [Table 1a Entry 40] | 210 |
| CC(C)CCN(C[C@@H](O)[C@H](Cc1ccccc1)NC(=O)[C@@H](NC(=O)OCc1ccccc1)C(C)C)S(=O)(=O)c1ccccc1 [Table 5 Entry 1] | 1.4 |

same assay, conditions: Table 20; @ 1 μM

| SMILES | IC50 (uM) or % inhibition: % inhibition @ 1 μM [% @ 1 μM] |
| --- | --- |
| COc1ccc(S(=O)(=O)N(CC(C)C)CC(O)C(Cc2ccccc2)NC(=O)c2ccc(CS(C)(=O)=O)cc2)cc1 (centres unmarked) [Table 5A Entry 22] | 63 |

same assay, conditions: Table 20; HIV protease enzyme assay; read-out: IC50 (uM) or % inhibition: IC50

| SMILES | IC50 [nM] |
| --- | --- |
| CC(C)CN(CC(O)C(Cc1ccccc1)NC(=O)c1ccccc1)S(=O)(=O)c1ccccc1 (centres unmarked) [Table 5A Entry 24] | 47 |
| COc1ccc(S(=O)(=O)N(CC(C)C)CC(O)C(Cc2ccccc2)NC(=O)c2ccc(S(C)(=O)=O)cc2)cc1 (centres unmarked) [Table 5A Entry 19] | 92 |
| COc1ccc(S(=O)(=O)N(CC(C)C)CC(O)C(Cc2ccccc2)NC(=O)C2CCCC2)cc1 (centres unmarked) [Table 5A Entry 1] | 40 |
| CCc1ccccc1C(=O)NC(Cc1ccccc1)C(O)CN(CC(C)C)S(=O)(=O)c1ccc(OC)cc1 (centres unmarked) [Table 5A Entry 13] | 9.8 |

same assay, conditions: Table 21; HIV protease enzyme assay; read-out: IC50

| SMILES | IC50 [nM] |
| --- | --- |
| COc1ccc(S(=O)(=O)N(CC(C)C)C[C@@H](O)[C@H](Cc2ccccc2)NC(=O)OCc2ccccn2)cc1 [Example 21] | 73 |
| COc1ccc(S(=O)(=O)N(CC(C)C)C[C@@H](O)[C@H](Cc2ccccc2)NC(=O)OCc2cncnc2)cc1 [Example 23] | 2 |
| CC(C)CN(C[C@@H](O)[C@H](Cc1ccccc1)NC(=O)OCc1cncs1)S(=O)(=O)c1cccc(N)c1 [Example 64] | 7 |
| COc1ccc(S(=O)(=O)N(CC(C)C)C[C@@H](O)[C@H](Cc2ccccc2)NC(=O)COc2c(C)cccc2C)cc1 [Example 74] | 3 |
| COc1ccc(S(=O)(=O)N(CC(C)C)C[C@@H](O)[C@H](Cc2ccccc2)NC(=O)O[C@H]2CCOC2)cc1 [Example 44] | 4 |
| Cc1ccccc1C(=O)N[C@@H](Cc1ccccc1)[C@H](O)CN(CC(C)C)S(=O)(=O)c1ccc(O)cc1 [Example 37] | 7 |
| Cc1ccccc1C(=O)N[C@@H](Cc1ccccc1)[C@H](O)CN(CC(C)C)S(=O)(=O)c1ccc(N)cc1 [Example 62] | 28 |
| CC(C)CN(C[C@@H](O)[C@H](Cc1ccccc1)NC(=O)COc1ccccc1)S(=O)(=O)c1ccc2ncsc2c1 [Example 78] | 3 |
| Cc1c(O)cccc1C(=O)N[C@@H](Cc1ccccc1)[C@H](O)CN(CC(C)C)S(=O)(=O)c1ccc2c(c1)OCO2 [Example 73] | 4 |
| Cc1cc(O)ccc1C(=O)N[C@@H](Cc1ccccc1)[C@H](O)CN(CC(C)C)S(=O)(=O)c1ccc2c(c1)OCO2 [Example 72] | 5 |
| Cc1c(N)cccc1C(=O)N[C@@H](Cc1ccccc1)[C@H](O)CN(CC(C)C)S(=O)(=O)c1ccc2c(c1)CCO2 [Example 68] | 7 |
| COc1ccc(S(=O)(=O)N(CC(C)C)C[C@@H](O)[C@H](Cc2ccccc2)NC(=O)OCc2ccoc2)cc1 [Example 58] | 2 |
| COc1ccc(S(=O)(=O)N(CC(C)C)C[C@@H](O)[C@H](Cc2ccccc2)NC(=O)C2CCCCC2)cc1 [Example 35] | 18 |
| COc1ccc(S(=O)(=O)N(CC(C)C)C[C@@H](O)[C@H](Cc2ccccc2)NC(=O)c2cccc([N+](=O)[O-])c2C)cc1 [Example 48] | 17 |
| COCCCN(C[C@@H](O)[C@H](Cc1ccccc1)NC(=O)OCc1ccccc1)S(=O)(=O)c1ccccc1 [Entry 9] | 53 |
| COc1ccc(S(=O)(=O)N(CC(C)C)C[C@@H](O)[C@H](Cc2ccccc2)NC(=O)OCc2cc[n+]([O-])cc2)cc1 [Example 26] | 68 |
| CCC(C)[C@H](NC(=O)CN(C)C)C(=O)N[C@@H](Cc1ccccc1)[C@H](O)CN(CC(C)C)S(=O)(=O)c1ccc(OC)cc1 (some centres unmarked) [Example 13] | 3 |

| SMILES | IC50 [nM] |
| --- | --- |
| CC(C)CN(C[C@@H](O)[C@H](Cc1ccccc1)NC(=O)OCc1cncs1)S(=O)(=O)c1ccc2c(c1)CCO2 [Example 67] | 5 |
| CC(C)CN(C[C@@H](O)[C@H](Cc1ccccc1)NC(=O)OCc1cccnc1)S(=O)(=O)c1ccc(Cl)cc1 [Example 18] | 4 |
| COc1ccc(S(=O)(=O)N(CC(C)C)C[C@@H](O)[C@H](Cc2ccccc2)NC(=O)OCc2ccc(O)nc2)cc1 [Example 39] | 16 |
| COc1ccc(S(=O)(=O)N(CC(C)C)C[C@@H](O)[C@H](Cc2ccccc2)NC(=O)c2ccc([N+](=O)[O-])cc2C)cc1 [Example 50] | 14 |
| CSCCCN(C[C@@H](O)[C@H](Cc1ccccc1)NC(=O)OCc1ccccc1)S(=O)(=O)c1ccccc1 [Entry 10] | 45 |
| COc1ccc(S(=O)(=O)N(CC(C)C)C[C@@H](O)[C@H](Cc2ccccc2)NC(=O)O[C@H]2CCSC2)cc1 [Example 46] | 2 |
| CC(C)CN(C[C@@H](O)[C@H](Cc1ccccc1)NC(=O)OCc1ccccc1)S(=O)(=O)c1ccc2nc(N)sc2c1 [Example 77] | 2 |
| COc1ccc(S(=O)(=O)N(CC(C)C)C[C@@H](O)[C@H](Cc2ccccc2)NC(=O)O[C@H]2CCS(=O)(=O)C2)cc1 [Example 47] | 3 |
| Cc1c(O)cccc1C(=O)N[C@@H](Cc1ccccc1)[C@H](O)CN(CC(C)C)S(=O)(=O)c1cccc(N)c1 [Example 65] | 4 |
| CC(C)CN(C[C@@H](O)[C@H](Cc1ccccc1)NC(=O)O[C@H]1CCSC1)S(=O)(=O)c1ccc(O)cc1 [Example 42] | 2 |
| CC(C)CN(C[C@@H](O)[C@H](Cc1ccccc1)NC(=O)OCc1cncs1)S(=O)(=O)c1ccc(N)cc1 [Example 61] | 16 |
| COc1ccc(S(=O)(=O)N(CC(C)C)C[C@@H](O)[C@H](Cc2ccccc2)NC(=O)c2cc([N+](=O)[O-])ccc2C)cc1 [Example 53] | 21 |
| CC(C)CN(C[C@@H](O)[C@H](Cc1ccccc1)NC(=O)O[C@H]1CCOC1)S(=O)(=O)c1ccc(O)cc1 [Example 45] | 2 |
| CC(C)CN(C[C@@H](O)[C@H](Cc1ccccc1)NC(=O)O[C@H]1CCS(=O)(=O)C1)S(=O)(=O)c1ccc(O)cc1 [Example 43] | 4 |
| CC(C)CN(C[C@@H](O)[C@H](Cc1ccccc1)NC(=O)OCc1ccc(N)nc1)S(=O)(=O)c1ccc(O)cc1 [Example 40] | 3 |
| COc1ccc(S(=O)(=O)N(CC(C)C)C[C@@H](O)[C@H](Cc2ccccc2)NC(=O)OCc2cncs2)cc1 [Example 56] | 4 |
